Data set [1] deals with Rattus norvegicus. The experiment in a line: Antiinflammatory activity in albino rat assessed as inhibition of carrageenan-induced paw edema at 10 mg/kg, ip after 2 hrs. The data set is classed as functional. As to conditions: route intraperitoneal.
Data set [2] deals with Rattus norvegicus. The experiment in a line: Antiinflammatory activity in albino rat assessed as inhibition of carrageenan-induced paw edema at 10 mg/kg, ip after 0.5 hrs. The data set is classed as functional. As to conditions: route intraperitoneal.
The test system of data set [3] is Rattus norvegicus. In words: Antiinflammatory activity in albino rat assessed as inhibition of carrageenan-induced paw edema at 10 mg/kg, ip after 4 hrs. As to conditions: route intraperitoneal. The data set is classed as functional. A general note: Carrageenan injected into the paw causes an acute inflammation.
Data set [4] deals with Rattus norvegicus. In words: Antiinflammatory activity in albino rat assessed as inhibition of carrageenan-induced paw edema at 10 mg/kg, ip after 1 hrs. The data set is classed as functional. As to conditions: route intraperitoneal.
For data set [5], the system named is Rattus norvegicus. The experiment in a line: Antiinflammatory activity in albino rat assessed as inhibition of carrageenan-induced paw edema at 10 mg/kg, ip after 3 hrs. The data set is classed as functional. As to conditions: route intraperitoneal.
The subject of data set [6] is Rattus norvegicus. In words: Antiinflammatory activity in albino rat assessed as inhibition of carrageenan-induced paw edema at 10 mg/kg, ip after 5 hrs. As to conditions: route intraperitoneal. The data set is classed as functional.
Data set [7] concerns Mus musculus. The experiment in a line: Analgesic activity in albino mouse assessed as effect on […] at 10 mg/kg, ip after 5 hrs by hot plate test. The data set is classed as functional. As to conditions: route intraperitoneal. On the technique in general: Thermal pain tests record how soon the animal reacts.
Data set [8] relates to Mus musculus. The experiment in a line: Analgesic activity in albino mouse assessed as effect on […] at 10 mg/kg, ip after 3 hrs by hot plate test. The data set is classed as functional. As to conditions: route intraperitoneal.
Data set [9] has as its system Mus musculus. In words: Analgesic activity in albino mouse assessed as effect on […] at 10 mg/kg, ip after 4 hrs by hot plate test. The data set is classed as functional. As to conditions: route intraperitoneal.
For data set [10], the system named is Mus musculus. The experiment in a line: Analgesic activity in albino mouse assessed as effect on […] at 10 mg/kg, ip after 0.5 hrs by hot plate test. The data set is classed as functional. As to conditions: route intraperitoneal.
Data set [11] deals with Mus musculus. In words: Analgesic activity in albino mouse assessed as effect on […] at 10 mg/kg, ip after 2 hrs by hot plate test. The data set is classed as functional. As to conditions: route intraperitoneal.
Data set [12] relates to Mus musculus. The experiment in a line: Analgesic activity in albino mouse assessed as effect on […] at 10 mg/kg, ip after 1 hrs by hot plate test. As to conditions: route intraperitoneal. The data set is classed as functional.
Data set [13] concerns Mus musculus. In words: Acute toxicity in ip dosed albino mouse upto 250 mg/kg after 72 hrs. The data set is classed as organism-based. Details: dose 250 mg/kg, route intraperitoneal. As to conditions: in vivo.

Broadly, the inhibition in vivo is how much of the control response was suppressed.

Structures are written as SMILES.

As for `N#Cc1c(-c2ccccc2)c(-c2ccccc2)n[nH]c1=[Se]`, the inhibition in vivo at 10 mg/kg in data set [1] came to 20.5%; in data set [2], 8.8%; in [3], 30.5%; in [4] it was 17.2%; in data set [5], 23.5%; in data set [6], 30.5%.

As to `N#CC1=C(N)C2=C(c3ccccc3)C(c3ccccc3)=NNC2[Se]1` (centres undefined), the Activity in data set [7] was 65.3%; in [8], 79.8%; in [9], 75.5%; in data set [10], 67.9%; in data set [11], 75.5%; in [12], 77.9%. For the same compound, the inhibition in vivo at 10 mg/kg in [1] turned out to be 29.4%; in data set [2], 8.8%; in [3] it was 36.1%; in [4] it was 9.9%; in data set [5], 29.4%; in data set [6] it was 44.4%.

As to `NC(=O)C1=C(N)C2=C(c3ccccc3)C(c3ccccc3)=NNC2[Se]1` (centres undefined), the Activity in data set [7] was 83.4%; in data set [13] it was “Non-toxic”; in data set [8] it was 98.4%; in data set [9], 90.5%; in data set [10], 90.3%; in data set [11], 99.4%. Moreover, the Activity in [12] was found to be 97.8%. The inhibition in vivo at 10 mg/kg in data set [1] was 26.4%; in [2], 8.7%; in data set [3], 47.2%; in [4], 14.7%; in [5], 44.4%; in data set [6], 50%.

With `CC(=O)Oc1ccccc1C(=O)O` [ASPIRIN], the Activity amounted to 30.01% in [7]; 45.6% in [8]; 39.2% in [9]; 36.2% in data set [10]; 50.5% in [11]; 58.9% in data set [12].

Take `COc1ccc2c(c1)c(CC(=O)O)c(C)n2C(=O)c1ccc(Cl)cc1` [INDOMETHACIN]: the inhibition in vivo at 10 mg/kg is 32.3% in [1]; 11.7% in data set [2]; 52.7% in [3]; 20.5% in [4]; 44.1% in data set [5]; 57.5% in [6].

As to `NC1=C(C(=O)c2ccccc2)[Se]C2NN=C(c3ccccc3)C(c3ccccc3)=C12` (centres undefined), the Activity in data set [7] came out at 24.2%; in data set [8], 36.5%; in data set [9] it was 31.9%; in [10], 25.2%; in data set [11], 30.6%; in [12], 27.1%. The inhibition in vivo at 10 mg/kg in data set [1] worked out at 26.4%; in data set [2], 9%; in data set [3], 35.5%; in data set [4], 9%; in data set [5], 29.4%; in data set [6] it was 38.8%.

For the compound `O=C1NC2(CCCCC2)NC2=C1[Se]C1NN=C(c3ccccc3)C(c3ccccc3)=C21` (centres undefined), the inhibition in vivo at 10 mg/kg in [1] is 23.5%; in data set [2] it was 8.7%; in data set [3], 30.5%; in [4], 9.9%; in data set [5] it was 23.5%; in [6] it was 38.8%.

As for `CCOC(=O)C1=C(N)C2=C(c3ccccc3)C(c3ccccc3)=NNC2[Se]1` (centres undefined), the Activity in data set [7] was 33.4%; in data set [8] it was 41.3%; in [9], 39.6%; in data set [10], 21.6%; in [11], 39.8%; in data set [12], 42.8%. Besides, the inhibition in vivo at 10 mg/kg in [1] is 23.5%; in data set [2] it was 8.8%; in data set [3], 41.6%; in data set [4], 17.2%; in data set [5] it was 35.2%; in data set [6] it was 44.4%.

For `CC(=O)C1=C(N)C2=C(c3ccccc3)C(c3ccccc3)=NNC2[Se]1` (centres undefined), the inhibition in vivo at 10 mg/kg was determined as 20.5% in [1]; 8.8% in data set [2]; 28.5% in data set [3]; 17.2% in data set [4]; 20.5% in [5]; 33.5% in data set [6].

The values above are taken from ChEMBL document CHEMBL1156716, “Selenium containing heterocycles: synthesis, anti-inflammatory, analgesic and anti-microbial activities of some new 4-cyanopyridazine-3(2H)selenone derivatives” (Eur J Med Chem, 2008).
